{"source": "patent US9987307B2", "about": "“Tolerogenic dendritic cells, methods of producing the same, and uses thereof” (SOTIO A.S., priority 2014, dated 2018)", "key": {"[1]": {"tested_on": "tDCs", "test": "ILT-3, PD-L1 and CD86 expression on restimulated tDCs in the presence of inhibitors (flow cytometry)", "assay_type": "cell-based, human", "settings": "for CD86 expression in tDCs in the presence of inhibitor / ILT-3 and PD-L1 expression in tDCs in the presence of inhibitor: restimulation 24 h", "description": "(§1) To induce maturation, DC were treated with vaccine grade monophosphoryl lipid A (MPLA) (2 μg/ml, Cayla-InvivoGen) on day 6 or on day 7. On day 7 or on day 8, DC were harvested, washed and functional assays were performed. Control DC (cDC) were cultured without tolerising factors. For restimulation assays, tolDC and cDC were extensively washed and recultured in complete RPMI 1640 medium (Gibco) in the absence of tolerising factors for 24-72 h, with or without lipopolysaccharide (LPS, 1 μg/ml, Sigma-Aldrich), poly I:C (25 μg/ml, Cayla-InvivoGen), CD40L (1000 ng/ml, Enzo) or a mixture of pro-inflammatory cytokines containing IL-1β (10 ng/ml), TNFα (10 ng/ml), IL-6 (10 ng/ml) and IFNγ (100 ng/ml) (all from R&D systems). Supernatant and cells were collected for further analysis. Signaling inhibitors were added 1 h before the start of experiments under the specified stimulation conditions. SB203580 (p38 MAPK inhibitor at 10 μM), SP600125 (JNK/SAPK inhibitor at 20 μM), PD98059 (ERK1/2 inhibitor at 20 μM), Bay 11-7082 (NF-κB inhibitor at 10 μM), Stattic (STAT3 inhibitor at 5 μM) and rapamycin (mTOR inhibitor at 100 nM) were obtained from Calbiochem and dissolved in DMSO.\nCells were stained with fluorochrome-conjugated mAbs for 30 min at 4° C. in PBS, washed and analysed on LSRFortessa cell analyzer (BD Biosciences). Appropriate isotype controls were included. Data were analyzed using FlowJo software (Tree Star). DCs were gated according to the FSC, SSC and CD11c+ parameters for analysis. Dead cells were excluded from the analysis based on DAPI staining. For intracellular cytokine staining, T cells were stimulated with phorbol-12-myristate-13-acetate (PMA) (50 ng/ml, Sigma-Aldrich) plus ionomycin (1 μg/ml, Sigma-Aldrich) for 4-16 hours in the presence of Brefeldin A (5 μg/ml, BioLegend) before cell analysing. After stimulation, cells were washed, incubated in Fixation/Permeabilization Buffer (eBiosciences) for 30 min at 4° C., then washed in Permeabilization Buffer (eBiosciences) and stained with appropriate mAb for 30 min at 4° C.\n(§2) Immature DCs were obtained from buffy coats of healthy donors as previously described [Palova-Jelinkova L, Rozkova D, Pecharova B, Bartova J, Sediva A, Tlaskalova-Hogenova H, Spisek R, Tuckova L: Gliadin fragments induce phenotypic and functional maturation of human dendritic cells. J Immunol 2005; 175:7038-7045]. […] Medium and cytokines were replenished on day 3. On day 6, DCs were harvested and seeded in 96-well plates (Nunc) at 1×10^6 cells/ml. On day 7, immature DCs were activated with vacci grade MPLA (2 μg/ml, Cayla-InvivoGen) for 24 hrs. To induce tDCs, DCs were treated with Dex on day 3 (1 μM, Medochemie) and Dex and VitD2-paricalcitol (1.5 ng/ml, Zemplar, Abbott Laboratories) on day 6. Control DCs (cDCs) were cultured without tolerising factors. For restimulation assays, tDCs and cDCs were washed and recultured in complete RPMI medium (Gibco) containing 5% human AB serum (Invitrogen) in the absence of tolerising factors for 24 h, with or without LPS (1 μg/ml, Sigma-Aldrich), polyI:C (25 μg/ml, Cayla-InvivoGen), megaCD40L™ (1000 ng/ml, Enzo Life Sciences) or mixture of pro-inflammatory cytokines containing IL-1β, TNF-α, IL-6 (all 10 ng/ml) and IFN-γ (100 ng/ml) (all from R&D systems). Signaling inhibitors were added 1 h before the start of experiments under the specified stimulation conditions. SB203580 (p38 MAPK inhibitor at 10 μM), SP600125 (JNK/SAPK inhibitor at 20 μM), PD98059 (ERK1/2 inhibitor at 20 μM), Bay 11-7082 (NF-κB inhibitor at 10 μM), Stattic (STAT3 inhibitor at 5 μM) and rapamycin (mTOR inhibitor at 100 nM) were obtained from Calbiochem and dissolved in dimethyl sulfoxide. Supernatants and cells were collected for further analysis.\nCells (2×10^5/well) were stained with fluorochrome-conjugated mAbs for 30 min at 4° C. in PBS, washed and analysed on LSR Fortessa cell analyzer (BD Biosciences). Appropriate isotype controls were included. Data were analyzed using FlowJo software (Tree Star). […]"}, "[2]": {"tested_on": "glycolysis", "test": "Metabolic quantification: lactate in DC supernatants", "assay_type": "cell-based, human", "settings": "pretreatment before restimulation, 24 h", "description": "lactate, glucose and lactate dehydrogenase measurements: Concentrations of lactate and glucose in DC culture supernatants were measured with Glycolysis Cell-based assay kit (Cayman Chemicals) and Glucose colorimetric assay kit (BioVision), respectively. When indicated, glycolysis was suppressed by treatment with 10 mM 2-deoxyglucose (Sigma) 1 h prior exposition of DCs cultured in Cell Gro into RPMI, LPS, CC, polyI:C or CD40L. LDH activity of the DCs extracts was measured with Lactate dehydrogenase activity assay kit (Sigma)."}, "[3]": {"tested_on": "allogeneic T cells", "test": "Allostimulatory assay (primary MLR, CFSE dilution)", "assay_type": "cell-based, human", "settings": "compared to tDCs without inhibitor; day 6", "description": "For primary MLR assays, allogeneic T cells (2×10^5) labelled with 5 μM carboxyfluorescein succinimidyl ester (CFSE, Invitrogen) were incubated with tolDC or cDC (2×10^4) in 96-well, round-bottom plates. T cell proliferation was determined by the sequential dilution of CFSE fluorescence of T cells, as detected by flow cytometry on day 6.\nT cells were obtained from PBMC non-adherent fraction. tDCs or cDCs (2×104) were cultured with allogeneic T cells (2×105) in complete RPMI medium (Gibco) containing 5% human AB serum (Invitrogen). IL-2 (20 U/ml, PeproTech) was added on day 2, 5 and 7. For primary mixed lymphocyte reaction (MLR) assays, allogeneic T cells (2×105) labelled with 5 μM carboxyfluorescein succinimidyl ester (CFSE) (Invitrogen) were incubated with tDCs or cDCs (2×104). T cell proliferation was determined by the sequential dilution of CFSE fluorescence of T cells, as detected by flow cytometry on day 6. For detection of IFN-γ, IL-10 and IL-17A production by T cells, 2×10^4 tDCs or cDCs were cultured with 2×10^5 allogeneic T cells. Cytokine production was determined by intracellular staining by flow cytometry on day 6 (IFN-γ) and day 9 (IL-10). IL-17A production from cell culture supernatants was analyzed by ELISA on day 6."}, "[4]": {"tested_on": "tDCs", "test": "IL-10 and IL-12 production of restimulated tDCs in the presence of inhibitors (ELISA)", "assay_type": "cell-based, human", "settings": "restimulation with CC, LPS, polyI:C, CD40L, 24 h", "description": "as §1\n(§3) Cell supernatants were harvested after 24 hours of DC stimulation and frozen at −80° C. until analysis. IL-10, IL-12p70, IL-6 and TNFα concentrations were determined in cell culture supernatants of activated DCs using Luminex assay (MILLIPLEX™ Human Cytokine/Chemokine Kit, Merck Millipore) and ELISA assay (DuoSet ELISA Kit, R&D systems) according to manufacturer's instructions.\nas §2\n(§4) Cell supernatants were harvested after 24 h of DC stimulation and frozen at −80° C. until analysis. IL-10, IL-12p70, TNF-α and TGF-β concentrations were determined using Luminex assay (MILLIPLEX™ Human Cytokine/Chemokine Kit, Merck Millipore) and ELISA assay (DuoSet ELISA Kit, R&D systems) according to the manufacturer's instructions. Cell supernatants were acidified before measuring TGF-β levels according to the manufacturer's instructions.\nlactate, glucose and lactate dehydrogenase measurements: Concentrations of lactate and glucose in DC culture supernatants were measured with Glycolysis Cell-based assay kit (Cayman Chemicals) and Glucose colorimetric assay kit (BioVision), respectively. […]"}, "[5]": {"tested_on": "cDCs", "test": "IL-10 and IL-12 production of restimulated cDCs in the presence of inhibitors (ELISA)", "assay_type": "cell-based, human", "settings": "for IL-12 production in cDCs in the presence of inhibitor: after LPS and CC triggering", "description": "as §1, §3\nImmature DCs were obtained from buffy coats of healthy donors as previously described [Palova-Jelinkova L, Rozkova D, Pecharova B, Bartova J, Sediva A, Tlaskalova-Hogenova H, Spisek R, Tuckova L: Gliadin fragments induce phenotypic and functional maturation of human dendritic cells. J Immunol 2005; 175:7038-7045]. […] Medium and cytokines were replenished on day 3. On day 6, DCs were harvested and seeded in 96-well plates (Nunc) at 1×10^6 cells/ml. On day 7, immature DCs were activated with vacci grade MPLA (2 μg/ml, Cayla-InvivoGen) for 24 hrs. To induce tDCs, DCs were treated with Dex on day 3 (1 μM, Medochemie) and Dex and VitD2-paricalcitol (1.5 ng/ml, Zemplar, Abbott Laboratories) on day 6. Control DCs (cDCs) were cultured without tolerising factors. […]\nas §4, with “Cell supernatants were acidified before measuring TGF-β levels according to the manufacturer's instructions.” left out"}, "[6]": {"tested_on": "DCs", "method": "Peripheral blood mononuclear cells (PBMC) from whole blood of patients were isolated using Ficoll-Paque (GE Healthcare) gradient centrifugation and monocytes were separated by allowing 2 h of cell adhesion in 75-cm2 culture flasks (Nunc). Then, non-adherent cells were washed out and frozen. Dendritic cells (DCs) were generated from monocytes in CellGro medium (CellGenix) containing penicillin and streptomycin (100 U/ml and 100 μg/ml, respectively; Gibco) in the presence of IL-4 (248 IU/ml, CellGenix) and GM-CSF (500 IU/ml, Gentaur) for 6 days. Fresh medium with cytokines was added on day 3. Tolerogenic dendritic cells (tolDCs) were induced by adding Dexamethasone on day 3 (1 μM, Medochemie) and Dexamethasone (1 μM) and vitamin D2 (Zemplar; 1.5 ng/ml, Abbott Laboratories) on day 6. Control DCs (cDCs) were generated without tolerogenic factors. On day 6, tolDCs and cDCs were harvested and seeded into 96-well plates (both 1×106 DCs/ml). […]\nCells were stained with mAb for 30 min in PBS at 4° C., washed and analyzed by LSR Fortessa cell analyzer (BD Biosciences). Data were analyzed using FlowJo software (Tree Star). […] DC viability was assessed with Annexin V-PE (Exbio) plus DAPI (Invitrogen) staining. […]"}}, "note": "“Also recorded” adds a separate entry of the source."}
{"smiles": "O=CC[C@@H](O)[C@H](O)[C@H](O)CO", "note": "[2-DG, 2-deoxyglucose]", "values": [{"measurement": "CD86 expression in tDCs in the presence of inhibitor", "setting": "[1]", "value": "remained unaffected"}, {"measurement": "ILT-3 and PD-L1 expression in tDCs in the presence of inhibitor", "setting": "[1]", "value": "failed to up-regulate ILT-3 and PD-L1 molecules"}, {"measurement": "lactate generation in Dex/VitD tDCs in the presence of inhibitor", "setting": "[2]", "value": "significantly prevented lactate generation"}, {"measurement": "ability of inhibitor-pretreated tDCs to stimulate allogeneic T cell proliferation", "setting": "[3]", "value": "increased partially"}, {"measurement": "IL-10 production in tDCs in the presence of inhibitor", "setting": "[4]", "value": "markedly decreased IL-10 production"}, {"measurement": "IL-12 production in tDCs in the presence of inhibitor", "setting": "[4]", "value": "remained unaffected"}]}
{"smiles": "Cc1ccc(S(=O)(=O)/C=C/C#N)cc1", "note": "[Bay 11-7082]", "values": [{"measurement": "IL-10 production in tDCs in the presence of inhibitor", "setting": "[4]", "value": "significantly dependent; also recorded: abrogated IL-10 production"}, {"measurement": "IL-12 production in tDCs in the presence of inhibitor", "setting": "[4]", "value": "did not changed IL-12 production; also recorded: did not affect IL-12 production"}, {"measurement": "IL-12 production in cDCs in the presence of inhibitor", "setting": "[5]", "value": "markedly down-regulated IL-12 production"}]}
{"smiles": "C[C@@H]1C[C@H]2[C@@H]3CCC4=CC(=O)C=C[C@]4(C)[C@@]3(F)[C@@H](O)C[C@]2(C)[C@@]1(O)C(=O)CO", "note": "[Dex, Dexamethasone]", "values": [{"measurement": "viability of DCs", "setting": "[6]", "value": "did not affect the viability of DCs"}]}
{"smiles": "COc1cccc(-c2cc(=O)c3ccccc3o2)c1N", "note": "[PD98059]", "values": [{"measurement": "PD-L1 expression in the presence of inhibitor", "setting": "[1]; after LPS stimulation", "value": "down-regulated PD-L1 expression"}, {"measurement": "CD86 expression in tDCs in the presence of inhibitor", "setting": "[1]", "value": "significantly up-regulated CD86 expression"}, {"measurement": "ability of inhibitor-pretreated tDCs to stimulate allogeneic T cell proliferation", "setting": "[3]", "value": "increased the ability"}, {"measurement": "IL-10 production in tDCs in the presence of inhibitor", "setting": "[4]", "value": "significantly dependent"}]}
{"smiles": "C[S+]([O-])c1ccc(-c2nc(-c3ccncc3)c(-c3ccc(F)cc3)[nH]2)cc1", "note": "(centres unmarked) [SB203580]", "values": [{"measurement": "ILT-3 and PD-L1 expression in tDCs in the presence of inhibitor", "setting": "[1]", "value": "down-regulated ILT-3 and PD-L1 expression"}, {"measurement": "IL-10 production in tDCs in the presence of inhibitor", "setting": "[4]", "value": "significantly dependent"}, {"measurement": "IL-12 production in tDCs in the presence of inhibitor", "setting": "[4]", "value": "did not changed IL-12 production; also recorded: did not affect IL-12 production"}, {"measurement": "IL-12 production in cDCs in the presence of inhibitor", "setting": "[5]", "value": "markedly down-regulated IL-12 production"}]}
{"smiles": "O=[N+]([O-])c1ccc2c(c1)S(=O)(=O)C=C2", "note": "[Stattic]", "values": [{"measurement": "CD86 expression in tDCs in the presence of inhibitor", "setting": "[1]", "value": "significantly increased CD86 expression"}, {"measurement": "ILT-3 and PD-L1 expression in tDCs in the presence of inhibitor", "setting": "[1]", "value": "markedly reduced expression"}, {"measurement": "ability of inhibitor-pretreated tDCs to stimulate allogeneic T cell proliferation", "setting": "[3]", "value": "partial restoration"}, {"measurement": "IL-10 production in tDCs in the presence of inhibitor", "setting": "[4]", "value": "reduced IL-10 production"}, {"measurement": "IL-12 production in tDCs in the presence of inhibitor", "setting": "[4]", "value": "unaffected"}, {"measurement": "IL-12 production in cDCs in the presence of inhibitor", "setting": "[5]", "value": "unaffected"}, {"measurement": "IL-10 production in cDCs in the presence of inhibitor", "setting": "[5]; after LPS restimulation", "value": "down-regulated IL-10 production"}]}
{"smiles": "C[C@H](/C=C/[C@H](C)C(C)(C)O)[C@H]1CC[C@H]2/C(=C/C=C3C[C@@H](O)C[C@H](O)C3)CCC[C@]12C", "note": "[VitD2, 19-nor-1,25-dihydroxyvitamin D2]", "values": [{"measurement": "viability of DCs", "setting": "[6]", "value": "did not affect the viability of DCs"}]}
